Values quoted from earlier work, collected in US20200101067A1 (IRR, Inc., priority 2013, published 2020).
Like-named read-outs stand apart in the source and are kept apart here.

Legend:
H1 receptor = H1 receptor (Homo sapiens, UniProt P35367); details: acidic pH, inflamed tissue
[1] = not given; remark: listed apart in the source

Chain of H1 receptor (P35367 whole entry): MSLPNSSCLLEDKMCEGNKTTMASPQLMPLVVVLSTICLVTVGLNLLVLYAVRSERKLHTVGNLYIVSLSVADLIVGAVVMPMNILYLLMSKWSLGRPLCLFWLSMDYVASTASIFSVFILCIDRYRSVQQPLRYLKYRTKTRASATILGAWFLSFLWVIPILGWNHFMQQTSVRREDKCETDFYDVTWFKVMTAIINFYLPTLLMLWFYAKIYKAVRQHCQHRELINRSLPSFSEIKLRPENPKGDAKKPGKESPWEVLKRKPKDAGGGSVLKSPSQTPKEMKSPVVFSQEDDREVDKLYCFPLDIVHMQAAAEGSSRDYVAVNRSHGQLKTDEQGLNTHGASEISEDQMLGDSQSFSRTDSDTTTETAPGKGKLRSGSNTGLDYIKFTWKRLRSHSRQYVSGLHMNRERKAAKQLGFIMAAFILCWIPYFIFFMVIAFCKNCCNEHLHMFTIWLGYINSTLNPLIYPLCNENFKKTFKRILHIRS

Structure (SMILES) | Enhanced receptor affinity over first generation mepyramine / first generation molecules (H1 receptor) [×] | Enhanced receptor affinity over first generation mepyramine / first generation molecules (H1 receptor; listed as levocetirizine) | Principal side effect at higher doses (higher doses, up to 30 mg/day) | Dose that can be safely administered (studies in humans) | Time to steady state level ([1]; in vivo) [h] | Rhinovirus-induced ICAM-1 and cytokine expression and viral replication (human rhinovirus; airway epithelial cells) | ICAM-1, IL-6, IL-8, TLR3 expression and NF-kappa B activation (human rhinovirus; stated as in vivo) | Eosinophil migration (IL-4, IL-6, and IL-8) | Inflammatory mediators IL-4, IL-6, and IL-8 (IL-4, IL-6, and IL-8) | Dose without clinically important adverse experiences (adult patients, 22 weeks) | Dose without clinically important adverse experiences (short-term studies, approximately one week) | Plasma concentration area under the curve profile, IV 7 mg vs approved 10 mg oral tablet ([1]; IV 7 mg) | Linear pharmacokinetics to dose ([1]; in vivo) [mg] | Steady-state level reached ([1]; in vivo) | Time to peak plasma level ([1]; in vivo) [h] | Steady-state level reached ([1]; in vivo, listed as montelukast) | Effect of a standard meal on oral bioavailability and Cmax ([1]; oral)
O=C(O)COCCN1CCN([C@H](c2ccccc2)c2ccc(Cl)cc2)CC1 [Levocetirizine, levocetirizine] | 5 | up to 5 × | Sedation | up to 30 mg/day | 40 | inhibits | decrease | decrease | decrease | – | – | – | – | – | – | – | –
CC(C)(O)c1ccccc1CC[C@@H](SCC1(CC(=O)O)CC1)c1cccc(/C=C/c2ccc3ccc(Cl)cc3n2)c1 [Montelukast, montelukast] | – | – | – | – | – | – | – | – | – | up to 200 mg/day | up to 900 mg/day | comparable | ≤ 50 | less than two | 3 to 4 | two | not affected
